Experimental data reported in ChEMBL document CHEMBL2074332, “Molecular and physiological evidence for multifunctionality of carnitine/organic cation transporter OCTN2” (Mol Pharmacol, 2001).
Each block holds one molecule with its values, some of them ahead of it.

What was measured:
[1] = biological target: T1, OCTN2 (organic cation/carnitine transporter 2) (Mus musculus, UniProt Q9Z0E8); assay: TP_TRANSPORTER: inhibition of Carnitine uptake (Carnitine: 0.01 uM, Serotonin: 5000 uM) in OCTN2-expressing HEK293 cells; type: functional, cell-based; set-up: scale not given: the % may be the effect or the level left; conditions: human, HEK293 cells that express OCTN2, probe carnitine; read-out: Activity
T1 sequence (Q9Z0E8 whole entry): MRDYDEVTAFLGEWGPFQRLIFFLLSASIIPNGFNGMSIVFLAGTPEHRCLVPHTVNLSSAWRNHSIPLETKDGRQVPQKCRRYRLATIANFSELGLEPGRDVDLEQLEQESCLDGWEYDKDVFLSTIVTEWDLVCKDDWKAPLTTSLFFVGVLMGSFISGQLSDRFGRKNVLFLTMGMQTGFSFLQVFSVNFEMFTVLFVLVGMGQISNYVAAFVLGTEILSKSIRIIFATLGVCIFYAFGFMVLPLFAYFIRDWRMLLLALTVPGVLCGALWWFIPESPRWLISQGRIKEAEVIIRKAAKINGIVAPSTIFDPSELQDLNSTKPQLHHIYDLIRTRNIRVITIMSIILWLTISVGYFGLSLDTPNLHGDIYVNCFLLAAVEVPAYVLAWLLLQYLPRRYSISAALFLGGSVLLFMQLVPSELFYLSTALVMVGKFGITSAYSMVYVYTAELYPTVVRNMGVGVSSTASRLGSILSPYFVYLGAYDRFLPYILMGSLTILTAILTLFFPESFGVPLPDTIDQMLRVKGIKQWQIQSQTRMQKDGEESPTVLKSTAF

[2] = biological target: T1, OCTN2 (organic cation/carnitine transporter 2); assay: TP_TRANSPORTER: inhibition of Carnitine uptake (Carnitine: 0.01 uM, Verapamil: 500 uM) in OCTN2-expressing HEK293 cells; type: functional, cell-based; set-up: scale not given: the % may be the effect or the level left; conditions: human, HEK293 cells that express OCTN2, probe carnitine; read-out: Activity
[3] = biological target: T2, Organic cation/carnitine transporter 2 (Mus musculus, UniProt Q9Z0E8); assay: TP_TRANSPORTER: uptake in OCTN2-expressing HEK293 cells; type: functional, cell-based; conditions: human
T2 sequence (Q9Z0E8 whole entry): T1 sequence (Q9Z0E8 whole entry)

[4] = biological target: T1, OCTN2 (organic cation/carnitine transporter 2); assay: TP_TRANSPORTER: inhibition of Carnitine uptake (Carnitine: 0.01 uM, Acetyl-beta-methylcholine: 500 uM) in OCTN2-expressing HEK293 cells; type: functional, cell-based; set-up: scale not given: the % may be the effect or the level left; conditions: human, HEK293 cells that express OCTN2, probe carnitine; read-out: Activity
[5] = biological target: T2, Organic cation/carnitine transporter 2; assay: TP_TRANSPORTER: inhibition of Carnitine uptake (Carnitine: 0.01 uM, PAH: 500 uM) in OCTN2-expressing HEK293 cells; type: functional, cell-based; conditions: human, hek293, 500 µM
[6] = biological target: T1, OCTN2 (organic cation/carnitine transporter 2); assay: in vitro; conditions: human, HEK293 cells that express OCTN2, probe carnitine
Description: TP_TRANSPORTER: inhibition of Carnitine uptake (Carnitine: 0.01 uM, Dapamine: 5000 uM) in OCTN2-expressing HEK293 cells

[7] = biological target: T1, OCTN2 (organic cation/carnitine transporter 2); assay: TP_TRANSPORTER: inhibition of Carnitine uptake (Carnitine: 0.01 uM, Acetylcholine: 5000 uM) in OCTN2-expressing HEK293 cells; type: functional, cell-based; set-up: scale not given: the % may be the effect or the level left; conditions: human, HEK293 cells that express OCTN2, probe carnitine; read-out: Activity
[8] = biological target: T1, OCTN2 (organic cation/carnitine transporter 2); assay: TP_TRANSPORTER: inhibition of Carnitine uptake (Carnitine: 0.01 uM, MPP+: 500 uM) in OCTN2-expressing HEK293 cells; type: functional, cell-based; set-up: scale not given: the % may be the effect or the level left; conditions: human, HEK293 cells that express OCTN2, probe carnitine; read-out: Activity
[9] = biological target: T1, OCTN2 (organic cation/carnitine transporter 2); assay: TP_TRANSPORTER: inhibition of Carnitine uptake (Carnitine: 0.01 uM, Procainamide: 500 uM) in OCTN2-expressing HEK293 cells; type: functional, cell-based; set-up: scale not given: the % may be the effect or the level left; conditions: human, HEK293 cells that express OCTN2, probe carnitine; read-out: Activity
[10] = biological target: T1, OCTN2 (organic cation/carnitine transporter 2); assay: TP_TRANSPORTER: inhibition of Carnitine uptake (Carnitine: 0.01 uM, Norepinephrine: 5000 uM) in OCTN2-expressing HEK293 cells; type: functional, cell-based; set-up: scale not given: the % may be the effect or the level left; conditions: human, HEK293 cells that express OCTN2, probe carnitine; read-out: Activity
[11] = biological target: T2, Organic cation/carnitine transporter 2; assay: TP_TRANSPORTER: inhibition of Carnitine uptake (Carnitine: 0.01 uM, NMN: 500 uM) in OCTN2-expressing HEK293 cells; type: functional, cell-based; conditions: human, hek293, 500 µM
[12] = biological target: T1, OCTN2 (organic cation/carnitine transporter 2); assay: TP_TRANSPORTER: inhibition of Carnitine uptake (Carnitine: 0.01 uM, Pyrilamine: 500 uM) in OCTN2-expressing HEK293 cells; type: functional, cell-based; set-up: scale not given: the % may be the effect or the level left; conditions: human, HEK293 cells that express OCTN2, probe carnitine; read-out: Activity
[13] = biological target: T2, Organic cation/carnitine transporter 2; assay: TP_TRANSPORTER: inhibition of Carnitine uptake (Carnitine: 0.01 uM, Guanidine: 500 uM) in OCTN2-expressing HEK293 cells; type: functional, cell-based; conditions: human, hek293, 500 µM
[14] = biological target: T1, OCTN2 (organic cation/carnitine transporter 2); assay: in vitro; conditions: human, HEK293 cells that express OCTN2, probe carnitine; remark: listed apart in the source
Description: TP_TRANSPORTER: inhibition of Carnitine uptake (Carnitine: 0.01 uM, Thiamine: 5000 uM) in OCTN2-expressing HEK293 cells

[15] = biological target: T2, Organic cation/carnitine transporter 2; assay: TP_TRANSPORTER: inhibition of Carnitine uptake (Carnitine: 0.01 uM, alpha-KG: 500 uM) in OCTN2-expressing HEK293 cells; type: functional, cell-based; conditions: human, hek293, 500 µM
[16] = biological target: T1, OCTN2 (organic cation/carnitine transporter 2); assay: TP_TRANSPORTER: inhibition of Carnitine uptake (Carnitine: 0.01 uM, Diphenhydramine: 500 uM) in OCTN2-expressing HEK293 cells; type: functional, cell-based; set-up: scale not given: the % may be the effect or the level left; conditions: human, HEK293 cells that express OCTN2, probe carnitine; read-out: Activity
[17] = biological target: T1, OCTN2 (organic cation/carnitine transporter 2); assay: TP_TRANSPORTER: inhibition of Carnitine uptake (Carnitine: 0.01 uM, Quinidine: 500 uM) in OCTN2-expressing HEK293 cells; type: functional, cell-based; set-up: scale not given: the % may be the effect or the level left; conditions: human, HEK293 cells that express OCTN2, probe carnitine; read-out: Activity
[18] = biological target: T1, OCTN2 (organic cation/carnitine transporter 2); assay: in vitro; conditions: human, HEK293 cells that express OCTN2, probe carnitine; remark: listed apart in the source
Description: TP_TRANSPORTER: inhibition of Carnitine uptake (Carnitine: 0.01 uM, Choline: 500 uM) in OCTN2-expressing HEK293 cells

[19] = biological target: T1, OCTN2 (organic cation/carnitine transporter 2); assay: in vitro; conditions: human, HEK293 cells that express OCTN2, probe carnitine; remark: listed apart in the source
Description: TP_TRANSPORTER: inhibition of Carnitine uptake (Carnitine: 0.01 uM, TEA: 500 uM) in OCTN2-expressing HEK293 cells

[20] = biological target: T1, OCTN2 (organic cation/carnitine transporter 2); assay: TP_TRANSPORTER: inhibition of Carnitine uptake (Carnitine: 0.01 uM, Lidocaine: 500 uM) in OCTN2-expressing HEK293 cells; type: functional, cell-based; set-up: scale not given: the % may be the effect or the level left; conditions: human, HEK293 cells that express OCTN2, probe carnitine; read-out: Activity

SMILES: NCCc1c[nH]c2ccc(O)cc12 [SEROTONIN]
- activity at 5000 µM [1]: 51.3%

SMILES: CC(=O)OC(C)C[N+](C)(C)C (centres undefined)
- activity at 500 µM [4]: 82.5%

SMILES: Nc1ccc(C(=O)NCC(=O)O)cc1 [AMINOHIPPURIC ACID]
- Activity [3]: is not a substrate [-]
- Activity [5]: is not an inhibitor [-]

SMILES: NCCc1ccc(O)c(O)c1 [DOPAMINE]
- activity at 5000 µM [6]: 70.9%

SMILES: CC(=O)OCC[N+](C)(C)C [ACETYLCHOLINE]
- activity at 5000 µM [7]: 34.2%

SMILES: C[n+]1ccc(-c2ccccc2)cc1
- activity at 500 µM [8]: 72.9%
- Activity [3]: substrate [+]

SMILES: N=C(N)N [GUANIDINE]
- Activity [13]: is not an inhibitor [-]

SMILES: O=C(O)CCC(=O)C(=O)O [ALPHA-KETOGLUTARIC ACID]
- Activity [15]: is not an inhibitor [-]

SMILES: CN(C)CCOC(c1ccccc1)c1ccccc1 [DIPHENHYDRAMINE]
- activity at 500 µM [16]: 43.6%

SMILES: C[N+](C)(C)CCO [CHOLINE]
- activity at 500 µM [18]: 74.6%

SMILES: CC(=O)O[C@H](CC(=O)[O-])C[N+](C)(C)C [ACETYLCARNITINE]
- Activity [3]: substrate [+]

The remaining lines, values ahead:

- activity at 500 µM [2]: 1.3%
- Activity [3]: substrate [+]
SMILES: COc1ccc(CCN(C)CCCC(C#N)(c2ccc(OC)c(OC)c2)C(C)C)cc1OC (centres undefined) [VERAPAMIL]

- activity at 500 µM [9]: 81.3%
SMILES: CCN(CC)CCNC(=O)c1ccc(N)cc1 [PROCAINAMIDE]

- activity at 5000 µM [10]: 70.9%
SMILES: NC[C@H](O)c1ccc(O)c(O)c1 [NOREPINEPHRINE]

- Activity [11]: is not an inhibitor [-]
SMILES: CNC(=O)c1cccnc1 [NICOTINYL METHYLAMIDE]

- Activity [3]: substrate [+]
- activity at 500 µM [12]: 36.3%
SMILES: COc1ccc(CN(CCN(C)C)c2ccccn2)cc1 [PYRILAMINE]

- activity at 5000 µM [14]: 65.9%
SMILES: Cc1ncc(C[n+]2csc(CCO)c2C)c(N)n1 [THIAMINE ION]

- activity at 500 µM [17]: 6.1%
SMILES: C=C[C@H]1C[N@@]2CC[C@H]1C[C@@H]2[C@@H](O)c1ccnc2ccc(OC)cc12 [QUINIDINE]

- activity at 500 µM [19]: 15.4%
SMILES: CC[N+](CC)(CC)CC [TETRYLAMMONIUM]

- activity at 500 µM [20]: 57.1%
SMILES: CCN(CC)CC(=O)Nc1c(C)cccc1C [LIDOCAINE]
